Experimental data from PubChem BioAssay AID1845203 (Molecular Pharmacology Branch, DTP, NCI, 2023).
pIC50: −log10 of the molar value.

Test system: G-401 tumor spheroids, viability % test/control
Assay: Anticancer human tumor G-401 cell line growth inhibition;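 note: spheroids exposed to compound for 7 days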;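 for viability, T/C: 100% = DMSO vehicle-treated spheroids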
Settings: spheroids with HUVEC and MSC; for pIC50: curve of first compound; for viability, T/C: stronger effect = lower value; active = viability on the fitted dose curve at most 10% of control; inactive = the rest
Method in brief: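 Single agents and combinations were tested on spheroids built from tumor cells plus HUVEC and hMSC, at half-log dilutions starting at or near clinical Cmax, else 10 microM; final DMSO 0.25% (v/v).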

CC(C)n1c(=O)n(C)c2cnc3cc(F)c(-c4ccc(OCCCN5CCCCC5)nc4)cc3c21 + CC[C@@]1(O)C(=O)OCc2c1cc1n(c2=O)Cc2cc3c(CN(C)C)c(O)ccc3nc2-1
inactive: viability, T/C (second compound 0.003 µM, first compound 0.0316 µM) 18.3% | viability, T/C (second compound 0.003 µM, first compound 0.1 µM) 20.1% | viability, T/C (second compound 0.003 µM, first compound 0.316 µM) 19.8% | viability, T/C (second compound 0.003 µM, first compound 1 µM) 22.7% | viability, T/C (second compound 0.003 µM, first compound 3.16 µM) 16.1% | viability, T/C (second compound 0.003 µM, first compound 10 µM) 10.8% | viability, T/C (second compound 0.00949 µM, first compound 0.0316 µM) 12.9% | viability, T/C (second compound 0.00949 µM, first compound 0.1 µM) 15.5% | viability, T/C (second compound 0.00949 µM, first compound 0.316 µM) 14.9% | viability, T/C (second compound 0.00949 µM, first compound 1 µM) 14.6% | viability, T/C (second compound 0.00949 µM, first compound 3.16 µM) 12.9% | viability, T/C (second compound 0.00949 µM, first compound 10 µM) 7.82% | viability, T/C (second compound 0.03 µM, first compound 0.0316 µM) 13.8% | viability, T/C (second compound 0.03 µM, first compound 0.1 µM) 11.8% | viability, T/C (second compound 0.03 µM, first compound 0.316 µM) 13.9% | viability, T/C (second compound 0.03 µM, first compound 1 µM) 15.1% | viability, T/C (second compound 0.0949 µM, first compound 0.0316 µM) 10.2%
active: viability, T/C (second compound 0.03 µM, first compound 3.16 µM) 9.27% | viability, T/C (second compound 0.03 µM, first compound 10 µM) 4.89% | viability, T/C (second compound 0.0949 µM, first compound 0.1 µM) 9.71% | viability, T/C (second compound 0.0949 µM, first compound 0.316 µM) 10.3% | viability, T/C (second compound 0.0949 µM, first compound 1 µM) 12.7% | viability, T/C (second compound 0.0949 µM, first compound 3.16 µM) 8.85% | viability, T/C (second compound 0.0949 µM, first compound 10 µM) 4.85% | viability, T/C (second compound 0.3 µM, first compound 0.0316 µM) 5.28% | viability, T/C (second compound 0.3 µM, first compound 0.1 µM) 5.27% | viability, T/C (second compound 0.3 µM, first compound 0.316 µM) 5.71% | viability, T/C (second compound 0.3 µM, first compound 1 µM) 6.45% | viability, T/C (second compound 0.3 µM, first compound 3.16 µM) 6.65% | viability, T/C (second compound 0.3 µM, first compound 10 µM) 2.79%
> 7.50: pIC50 (second compound 0.003 µM) | pIC50 (second compound 0.00949 µM) | pIC50 (second compound 0.03 µM) | pIC50 (second compound 0.0949 µM) | pIC50 (second compound 0.3 µM)
